Test results reported in US9724358B2, “Minocycline compounds and methods of use thereof” (Paratek Pharmaceuticals, Inc., priority 2008, dated 2017).

Assays:
GNR = test: Phase 2 CSSSI study, clinical outcome by organism: GNR; assay type: in vivo, gram-negative rods; conditions: ME population
Protocol: (§1) A randomized (1:1), controlled, evaluator-blinded Phase 2 study comparing 9-[(2,2-dimethyl-propyl amino)-methyl-minocycline (compound 1) and linezolid (Zyvox™) for the treatment of complicated skin and skin structure infections (CSSSI) was conducted. Patients with CSSSI who required initial intravenous (IV) therapy and met inclusion and exclusion criteria were enrolled at 11 centers in the US and were randomized to receive either compound 1 (100 mg Q24 h IV with 200 mg Q24 h oral step-down) or linezolid (600 mg Q12 h IV with 600 mg Q12 h oral step-down).
(§2) An infecting pathogen was defined as an isolate derived from the last positive culture taken from the site of infection under study prior to and including day 1.

[1] = Phase 2 CSSSI study, safety: ALT level; assay type: in vivo, human
Protocol: as §1
(§3) At each of the four structured evaluations, the blinded evaluator assessed the subject, with particular attention to scoring the findings at the primary site of infection and obtaining cultures. Clinical and microbiologic outcomes were determined using these assessments. Primary evaluation criteria was safety and tolerability compared with linezolid. Secondary evaluation criteria was efficacy of compound 1 compared to linezolid, as well as pharmacokinetics of compound 1.

[2] = test system: complicated skin and skin structure infections (CSSSI); test: Phase 2 study in CSSSI, clinical outcome at test of cure; assay type: in vivo, human
Protocol: as §1
All subjects had four structured evaluations: at Enrollment (Baseline); at End of IV Treatment; at End of Treatment; and at 10 to 17 days after last dose of treatment (test of cure (TOC) evaluation). In addition, the blinded investigator saw each subject daily while they were on IV therapy and at least every 3 days while receiving oral treatment to determine whether to continue current treatment, switch from IV to oral therapy, or discontinue treatment.
as §3
At each scheduled evaluation, the blinded evaluator examined the primary site of infection; for patients with multiple non-contiguous areas of infection, the blinded evaluator identified the most severely affected portion at Enrollment and designated that as the primary site of infection. The following information was recorded for each patient: maximal linear dimension of area of continuous involvement of infection; maximal linear dimension of ulceration, if present; semi-qualitative (scale of 0 to 3; none, mild, marked, severe) description of infection for the following features: erythema, edema/induration, fluctuance, necrotic tissue, purulence (including drainage), and tenderness/pain. In addition, at the Enrollment Evaluation, the following were also recorded the anatomical location of the primary site of infection; and the clinical diagnosis of the type of the infection.
Both the investigational drug, compound 1, and the comparator drug, Zyvox™ were administered intravenously and orally. Patients randomized to linezolid may have received aztreonam IV for suspected or documented gram-negative infection. Subjects were initially treated with study drug IV and then switched to oral therapy. The expected duration of IV treatment was up to 7 days; the expected total duration of treatment (IV and oral) was up to 14 days.
For IV administration, the HCl salt of compound 1 for injection was given as 100 mg in 100 ml sterile saline infused over 30 minutes q24 h. For oral administration, compound 1 100 mg capsules were taken fasting as 2 capsules with 8 oz. water q24 h. No food was to be taken for 30 to 60 minutes after dosing and no dairy products for 4 hours.
Linezolid (Zyvox™) 600 mg tablets and pre-mixed 600 mg IV infusion solution (300 ml volume) were obtained from commercial sources. Linezolid 600 mg IV was administered as a 30 minute infusion.
Efficacy analyses were performed on several populations of subjects. Subjects were analyzed for efficacy according to randomization, regardless of treatment administered.
The Intent-to-Treat (ITT) population includes all enrolled subjects who received at least one dose of study medication.
The modified Intent-to-Treat (mITT) population comprises all subjects in the ITT population who have an Infecting Pathogen isolated at prior to administration of the study compound. […]

G+ anaerobes = test: Phase 2 CSSSI study, clinical outcome by organism: G+ anaerobes; assay type: in vivo, gram-positive anaerobes; conditions: ME population
Protocol: as §1, §2

MSSA = test: Phase 2 CSSSI study, clinical outcome by organism: MSSA; assay type: in vivo, Staphylococcus aureus; conditions: for Clinical outcome Failure (number) / Clinical outcome Success (number): ME population, MSSA; for clinical success rate against MSSA: as determined in the trials of the Exemplification
Protocol: as §1, §2

[3] = EOT, ALT abnormal at enrollment
[4] = EOT, ALT within normal limits at enrollment
[5] = TOC, ALT abnormal at enrollment
[6] = TOC, ALT within normal limits at enrollment
[7] = max on treatment, ALT abnormal at enrollment
[8] = max on treatment, ALT within normal limits at enrollment
[9] = clinically evaluable population
[10] = microbiologically evaluable population

## CN(C)c1cc(CNCC(C)(C)C)c(O)c2c1C[C@H]1C[C@H]3[C@H](N(C)C)C(O)=C(C(N)=O)C(=O)[C@@]3(O)C(O)=C1C2=O [Compound 1, 9-[(2,2-dimethyl-propylamino)-methyl]-minocycline]
GNR
  Clinical outcome Failure (number): 2
  Clinical outcome Success (number): 7
[1]; [3]
  ALT Increase: >2x ULN and 2x baseline (number): 0
  ALT NS: >ULN and <2x baseline (%): 84.6%
  ALT NS: >ULN and <2x baseline (number): 11
  ALT Within normal limits (%): 15.4%
  ALT Within normal limits (number): 2
[1]; [4]
  ALT 1x-2x (%): 6.5%
  ALT 1x-2x (number): 6
  ALT 2x-3x (number): 0
  ALT >3x (number): 0
  ALT Within normal limits (%): 93.5%
  ALT Within normal limits (number): 86
[1]; [5]
  ALT Increase: >2x ULN and 2x baseline (%): (7.7%)
  ALT Increase: >2x ULN and 2x baseline (number): 1
  ALT NS: >ULN and <2x baseline (%): (69.2%)
  ALT NS: >ULN and <2x baseline (number): 9
  ALT Within normal limits (%): (23.1%)
  ALT Within normal limits (number): 3
[1]; [6]
  ALT 1x-2x (%): (5.6%)
  ALT 1x-2x (number): 5
  ALT 2x-3x (number): 0
  ALT >3x (number): 0
  ALT Within normal limits (%): (94.4%)
  ALT Within normal limits (number): 85
[1]; [7]
  ALT Increase: >2x ULN and 2x baseline (%): (14.3%)
  ALT Increase: >2x ULN and 2x baseline (number): 2
  ALT NS: >ULN and <2x baseline (%): (78.6%)
  ALT NS: >ULN and <2x baseline (number): 11
  ALT Within normal limits (%): (7.1%)
  ALT Within normal limits (number): 1
[1]; [8]
  ALT 1x-2x (%): (12.4%)
  ALT 1x-2x (number): 12
  ALT 2x-3x (number): 0
  ALT >3x (%): (1.0%)
  ALT >3x (number): 1
  ALT Within normal limits (%): (86.6%)
  ALT Within normal limits (number): 84
[2]; ITT population
  Clinical Failure (% of subjects): (11.7%)
  Clinical Failure (number of subjects): 13
  Clinical Failure: Failure (% of subjects): (1.8%)
  Clinical Failure: Failure (number of subjects): 2
  Clinical Failure: Nonevaluable (% of subjects): (9.9%)
  Clinical Failure: Nonevaluable (number of subjects): 11
  Clinical Success (% of subjects): (88.3%)
  Clinical Success (number of subjects): 98
[2]; ITT population, listed as compound 1
  Clinical Success (% of subjects): 88.3%
[2]; [9]
  Clinical Failure (% of subjects): 2.0%
  Clinical Failure (number of subjects): 2
  Clinical Success (% of subjects): 98.0%
  Clinical Success (number of subjects): 98
[2]; clinically evaluable population, listed as compound 1
  Clinical Success (% of subjects): 98%
[2]; mITT population
  Clinical Failure (% of subjects): (10.7%)
  Clinical Failure (number of subjects): 9
  Clinical Failure: Failure (% of subjects): (2.4%)
  Clinical Failure: Failure (number of subjects): 2
  Clinical Failure: Nonevaluable (% of subjects): (8.3%)
  Clinical Failure: Nonevaluable (number of subjects): 7
  Clinical Success (% of subjects): (89.3%)
  Clinical Success (number of subjects): 75
[2]; [10]
  Clinical Failure (% of subjects): 2.6%
  Clinical Failure (number of subjects): 2
  Clinical Success (% of subjects): 97.4%
  Clinical Success (number of subjects): 75
G+ anaerobes
  Clinical outcome Failure (number): 0
  Clinical outcome Success (number): 0
MSSA
  Clinical outcome Failure (number): 2
  Clinical outcome Success (number): 27
  clinical success rate against MSSA: 93%

## CC(=O)NCC1CN(c2ccc(N3CCOCC3)c(F)c2)C(=O)O1 (stereo not shown) [Linezolid, N-[[3-(3-fluoro-4-morpholinophenyl)-2-oxooxazolidin-5-yl]methyl]acetamide, reference compound]
GNR
  Clinical outcome Failure (number): 0
  Clinical outcome Success (number): 7
[1]; [3]
  ALT Increase: >2x ULN and 2x baseline (number): 0
  ALT NS: >ULN and <2x baseline (%): (63.6%)
  ALT NS: >ULN and <2x baseline (number): 7
  ALT Within normal limits (%): (36.4%)
  ALT Within normal limits (number): 4
[1]; [4]
  ALT 1x-2x (%): (10.0%)
  ALT 1x-2x (number): 9
  ALT 2x-3x (%): (1.1%)
  ALT 2x-3x (number): 1
  ALT >3x (%): (1.1%)
  ALT >3x (number): 1
  ALT Within normal limits (%): (87.8%)
  ALT Within normal limits (number): 79
[1]; [5]
  ALT Increase: >2x ULN and 2x baseline (%): (8.3%)
  ALT Increase: >2x ULN and 2x baseline (number): 1
  ALT NS: >ULN and <2x baseline (%): (50.0%)
  ALT NS: >ULN and <2x baseline (number): 6
  ALT Within normal limits (%): (41.7%)
  ALT Within normal limits (number): 5
[1]; [6]
  ALT 1x-2x (%): (5.1%)
  ALT 1x-2x (number): 4
  ALT 2x-3x (number): 0
  ALT >3x (number): 0
  ALT Within normal limits (%): (94.9%)
  ALT Within normal limits (number): 75
[1]; [7]
  ALT Increase: >2x ULN and 2x baseline (%): (16.7%)
  ALT Increase: >2x ULN and 2x baseline (number): 2
  ALT NS: >ULN and <2x baseline (%): (66.7%)
  ALT NS: >ULN and <2x baseline (number): 8
  ALT Within normal limits (%): (16.7%)
  ALT Within normal limits (number): 2
[1]; [8]
  ALT 1x-2x (%): (14.7%)
  ALT 1x-2x (number): 14
  ALT 2x-3x (%): (5.3%)
  ALT 2x-3x (number): 5
  ALT >3x (%): (1.1%)
  ALT >3x (number): 1
  ALT Within normal limits (%): (78.9%)
  ALT Within normal limits (number): 75
[2]; ITT population
  Clinical Failure (% of subjects): 24.1%
  Clinical Failure (number of subjects): 26
  Clinical Failure: Failure (% of subjects): 5.6%
  Clinical Failure: Failure (number of subjects): 6
  Clinical Failure: Nonevaluable (% of subjects): 18.5%
  Clinical Failure: Nonevaluable (number of subjects): 20
  Clinical Success (% of subjects): 75.9%
  Clinical Success (number of subjects): 82
[2]; [9]
  Clinical Failure (% of subjects): 6.8%
  Clinical Failure (number of subjects): 6
  Clinical Success (% of subjects): 93.2%
  Clinical Success (number of subjects): 82
[2]; mITT population
  Clinical Failure (% of subjects): 24.4%
  Clinical Failure (number of subjects): 19
  Clinical Failure: Failure (% of subjects): 5.1%
  Clinical Failure: Failure (number of subjects): 4
  Clinical Failure: Nonevaluable (% of subjects): 19.2%
  Clinical Failure: Nonevaluable (number of subjects): 15
  Clinical Success (% of subjects): 75.6%
  Clinical Success (number of subjects): 59
[2]; [10]
  Clinical Failure (% of subjects): 6.3%
  Clinical Failure (number of subjects): 4
  Clinical Success (% of subjects): 93.7%
  Clinical Success (number of subjects): 59
G+ anaerobes
  Clinical outcome Failure (number): 0
  Clinical outcome Success (number): 3
MSSA
  Clinical outcome Failure (number): 2
  Clinical outcome Success (number): 21
  clinical success rate against MSSA: 91%
